Reference: ChEMBL document CHEMBL1131887, “Blockers of human T cell Kv1.3 potassium channels using de novo ligand design and solid-phase parallel combinatorial chemistry” (Bioorg Med Chem Lett, 1999)

Target: Potassium voltage-gated channel subfamily A member 3 (Homo sapiens, UniProt P22001)
Test: Displacement of [125I]- ChTX from human T cell voltage-gated potassium channel subunit Kv1.3
Type: cell-based

Potassium voltage-gated channel subfamily A member 3, sequence (P22001 whole entry): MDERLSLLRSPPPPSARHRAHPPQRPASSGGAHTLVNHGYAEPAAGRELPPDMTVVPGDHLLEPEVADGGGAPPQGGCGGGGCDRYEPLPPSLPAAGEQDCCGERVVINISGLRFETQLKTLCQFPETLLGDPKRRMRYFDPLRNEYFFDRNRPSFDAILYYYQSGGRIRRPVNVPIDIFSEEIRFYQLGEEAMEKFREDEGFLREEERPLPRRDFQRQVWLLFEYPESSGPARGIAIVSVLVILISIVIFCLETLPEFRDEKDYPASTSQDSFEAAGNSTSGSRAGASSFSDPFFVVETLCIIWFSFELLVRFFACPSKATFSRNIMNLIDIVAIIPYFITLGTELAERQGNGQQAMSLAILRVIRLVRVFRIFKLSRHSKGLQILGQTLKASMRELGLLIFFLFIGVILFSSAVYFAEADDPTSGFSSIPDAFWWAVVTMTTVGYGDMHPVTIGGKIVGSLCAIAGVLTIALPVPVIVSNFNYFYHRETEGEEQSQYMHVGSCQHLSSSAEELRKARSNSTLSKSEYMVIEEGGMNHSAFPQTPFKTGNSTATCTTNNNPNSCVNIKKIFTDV

Structure (SMILES)	IC50
CC(C)NC(=O)c1cc(/C=C/c2ccc(Cl)c(F)c2)ccc1-c1ccc(Cl)cc1	3.7 µM
CCCCNC(=O)c1cc(/C=C/Cc2ccccc2)ccc1-c1ccc(Cl)cc1	6.1 µM
CC(C)NC(=O)c1cc(/C=C/Cc2ccccc2)ccc1-c1ccc(Cl)cc1	5.6 µM
NC(N)=NNC(=O)c1cc(/C=C/c2ccc(F)cc2)ccc1-c1ccc(Cl)cc1	3.9 µM
CC(C)NC(=O)c1cc(/C=C/c2ccc(OCc3ccccc3)cc2)ccc1-c1ccc(Cl)cc1	9.9 µM
CCCCNC(=O)c1cc(/C=C/c2ccccc2F)ccc1-c1ccc(Cl)cc1	8 µM
CCCNC(=O)c1cc(/C=C/CCc2ccccc2)ccc1-c1ccc(Cl)cc1	4 µM
CNC(=O)c1cc(/C=C/c2ccc(OCc3ccccc3)c(OCc3ccccc3)c2)ccc1-c1ccc(Cl)cc1	2.9 µM
CC(C)NC(=O)c1cc(/C=C/c2cccc(Cl)c2)ccc1-c1ccc(Cl)cc1	10.1 µM
CCCNC(=O)c1cc(/C=C/Cc2ccccc2)ccc1-c1ccc(Cl)cc1	5.8 µM
CCNC(=O)c1cc(/C=C/CCc2ccccc2)ccc1-c1ccc(Cl)cc1	3.2 µM
CCCNC(=O)c1cc(/C=C/c2ccc(F)cc2)ccc1-c1ccc(Cl)cc1	9.7 µM
CCCCC/N=c1\ccn(Cc2ccccc2)c2ccccc12 [CP-339818]	0.2 µM
